Earlier results on 1 compound are cited in patent US20110311626A1, “CONTROLLED RELEASE COMPOSITIONS COMPRISING ANTI-CHOLINERGIC DRUGS” (priority 2009, published 2011).

The conditions of this data set: currently marketed formulation, blood plasma, after administration.

One may read the Tmax as the time at which the peak concentration occurs. With `CCN(CC)CCOC(=O)C1(C2CCCCC2)CCCCC1` [dicyclomine, bicyclohexyl-1-carboxylic acid, 2-(diethylamino) ethyl ester], the Tmax was 1.5 to 3 h.
